Results taken from ChEMBL document CHEMBL1201862, “PubChem BioAssay data set” (2004).
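These data come from cells grown in 96-well plates and exposed to compound for 48 hours at five concentrations. GI50 marks 50% less growth.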 Active and inactive are the calls of the source. No stated cut-off is given here; in the data, active = GI50 up to about 1.1 µM and inactive = higher.

Key:
Assay in all cases: NCI tumour cell line growth inhibition, 48 h
786-0 = test system: 786-0
A498 = test system: A498
A549 = test system: A549
ACHN = test system: ACHN
BT-549 = test system: BT-549
CAKI-1 = test system: CAKI-1
CCRF-CEM = test system: CCRF-CEM
COLO 205 = test system: COLO 205
DU-145 = test system: DU-145
HCC 2998 = test system: HCC 2998
HCT-116 = test system: HCT-116
HCT-15 = test system: HCT-15
HL-60 = test system: HL-60
HOP-62 = test system: HOP-62
HOP-92 = test system: HOP-92
HT-29 = test system: HT-29
Hs-578T = test system: Hs-578T
IGROV-1 = test system: IGROV-1
K562 = test system: K562
KM12 = test system: KM12
LOX IMVI = test system: LOX IMVI
M14 = test system: M14
MCF7 = test system: MCF7
MDA-MB-231 = test system: MDA-MB-231
MDA-MB-435 = test system: MDA-MB-435
MDA-N = test system: MDA-N
MOLT-4 = test system: MOLT-4
Malme-3M = test system: Malme-3M
NCI-H226 = test system: NCI-H226
NCI-H23 = test system: NCI-H23
NCI-H460 = test system: NCI-H460
NCI-H522 = test system: NCI-H522
NCI/ADR-RES = test system: NCI/ADR-RES
OVCAR-3 = test system: OVCAR-3
OVCAR-4 = test system: OVCAR-4
OVCAR-5 = test system: OVCAR-5
OVCAR-8 = test system: OVCAR-8
PC-3 = test system: PC-3
RPMI-8226 = test system: RPMI-8226
RXF 393 = test system: RXF 393
SF-268 = test system: SF-268
SF-295 = test system: SF-295
SF-539 = test system: SF-539
SK-MEL-28 = test system: SK-MEL-28
SK-MEL-2 = test system: SK-MEL-2
SK-MEL-5 = test system: SK-MEL-5
SK-OV-3 = test system: SK-OV-3
SN12C = test system: SN12C
SNB-19 = test system: SNB-19
SR = test system: SR
SW-620 = test system: SW-620
TK-10 = test system: TK-10
U-251 = test system: U-251
UACC-257 = test system: UACC-257
UACC-62 = test system: UACC-62
UO-31 = test system: UO-31
EKVX = test system: EKVX
SNB-75 = test system: SNB-75
T47D = test system: T47D

Measured: GI50

COC(=O)Cc1c([C@H]2[C@H](CC(=O)OC)c3ccccc3N2S(=O)(=O)c2ccc(C)cc2)[nH]c2ccccc12
inactive: 786-0 > 100 µM | A498 > 100 µM | A549 > 100 µM | ACHN > 100 µM | BT-549 > 100 µM | CAKI-1 > 100 µM | CCRF-CEM 18.5 µM | COLO 205 > 100 µM | DU-145 > 100 µM | HCC 2998 > 100 µM | HCT-116 > 100 µM | HL-60 > 100 µM | HOP-62 > 100 µM | HOP-92 > 100 µM | HT-29 > 100 µM | Hs-578T > 100 µM | IGROV-1 3.13 µM | K562 31.4 µM | KM12 > 56.9 µM | LOX IMVI > 100 µM | M14 > 100 µM | MCF7 > 100 µM | MDA-MB-231 > 100 µM | MDA-MB-435 > 100 µM | MDA-N > 100 µM | MOLT-4 3.4 µM | NCI-H226 > 100 µM | NCI-H23 > 100 µM | NCI-H460 > 100 µM | NCI-H522 > 28.4 µM | NCI/ADR-RES > 100 µM | OVCAR-3 > 100 µM | OVCAR-4 > 100 µM | OVCAR-5 > 100 µM | OVCAR-8 > 100 µM | PC-3 > 100 µM | RPMI-8226 7 µM | RXF 393 > 100 µM | SF-268 > 100 µM | SF-295 > 100 µM | SF-539 > 100 µM | SK-MEL-28 > 100 µM | SK-MEL-2 > 100 µM | SK-MEL-5 > 100 µM | SK-OV-3 > 100 µM | SN12C > 100 µM | SNB-19 > 100 µM | SR 9.33 µM | SW-620 > 100 µM | TK-10 > 100 µM | U-251 > 100 µM | UACC-257 > 100 µM | UACC-62 > 100 µM | UO-31 > 100 µM
> 100 µM: HCT-15
active: Malme-3M 0.208 µM

Cc1cccc2c1c(=O)c1c(O)cc3c(c1n2C)C=CC(C)(C)O3
inactive: 786-0 > 100 µM | A498 > 100 µM | A549 > 100 µM | ACHN > 100 µM | BT-549 > 100 µM | CAKI-1 > 100 µM | CCRF-CEM > 100 µM | COLO 205 33.7 µM | DU-145 > 100 µM | EKVX 33.9 µM | HCC 2998 > 100 µM | HCT-116 > 100 µM | HL-60 > 100 µM | HOP-62 > 100 µM | HOP-92 > 100 µM | HT-29 9.1 µM | Hs-578T > 100 µM | IGROV-1 62.7 µM | K562 18.1 µM | KM12 70.3 µM | LOX IMVI > 100 µM | M14 > 100 µM | MCF7 > 100 µM | MDA-MB-231 > 100 µM | MDA-MB-435 > 100 µM | MDA-N > 100 µM | MOLT-4 > 100 µM | Malme-3M > 100 µM | NCI-H226 96.4 µM | NCI-H23 > 100 µM | NCI-H460 > 100 µM | NCI-H522 > 100 µM | NCI/ADR-RES > 100 µM | OVCAR-3 > 100 µM | OVCAR-4 > 100 µM | OVCAR-5 > 100 µM | OVCAR-8 > 100 µM | PC-3 > 100 µM | RPMI-8226 > 100 µM | RXF 393 > 100 µM | SF-268 > 100 µM | SF-295 > 100 µM | SF-539 > 100 µM | SK-MEL-28 > 100 µM | SK-MEL-2 > 100 µM | SK-MEL-5 75 µM | SK-OV-3 > 100 µM | SN12C > 100 µM | SNB-19 > 100 µM | SNB-75 > 100 µM | SR > 100 µM | SW-620 > 100 µM | TK-10 64.9 µM | U-251 > 100 µM | UACC-257 > 100 µM | UACC-62 > 100 µM
> 100 µM: HCT-15

CC1CCCOc2ccc(cc2)/C=N\c2ccc(cc2)CCc2ccc(cc2)/N=C\c2ccc(cc2)OCCC1
inactive: 786-0 > 100 µM | A498 > 100 µM | A549 > 100 µM | ACHN > 100 µM | BT-549 > 100 µM | CAKI-1 > 100 µM | CCRF-CEM > 100 µM | COLO 205 > 100 µM | DU-145 > 100 µM | EKVX > 100 µM | HCC 2998 > 100 µM | HCT-116 > 100 µM | HOP-62 > 100 µM | HOP-92 > 100 µM | HT-29 > 100 µM | Hs-578T > 100 µM | IGROV-1 > 100 µM | K562 > 100 µM | KM12 > 100 µM | LOX IMVI > 100 µM | M14 > 100 µM | MCF7 > 100 µM | MDA-MB-231 > 100 µM | MDA-MB-435 > 100 µM | MDA-N > 100 µM | MOLT-4 > 100 µM | Malme-3M > 100 µM | NCI-H226 > 100 µM | NCI-H23 > 100 µM | NCI-H460 > 100 µM | NCI-H522 > 100 µM | NCI/ADR-RES > 100 µM | OVCAR-3 > 100 µM | OVCAR-4 > 100 µM | OVCAR-5 > 100 µM | OVCAR-8 > 100 µM | PC-3 > 100 µM | RPMI-8226 > 100 µM | SF-268 > 100 µM | SF-295 > 100 µM | SF-539 > 100 µM | SK-MEL-28 > 100 µM | SK-MEL-2 > 100 µM | SK-MEL-5 > 100 µM | SN12C > 100 µM | SNB-19 > 100 µM | SNB-75 > 100 µM | SR > 100 µM | SW-620 > 100 µM | TK-10 > 100 µM | U-251 > 100 µM | UACC-257 > 100 µM | UACC-62 > 100 µM | UO-31 > 100 µM
> 100 µM: HCT-15

COC1(CCO)CC=CCC1(CCO)OC (stereo not given)
inactive: 786-0 > 100 µM | A549 > 100 µM | ACHN > 100 µM | BT-549 > 100 µM | CAKI-1 > 100 µM | CCRF-CEM > 100 µM | COLO 205 > 100 µM | DU-145 > 100 µM | EKVX > 100 µM | HCT-116 > 100 µM | HL-60 > 100 µM | HOP-62 > 100 µM | HOP-92 > 100 µM | HT-29 > 100 µM | Hs-578T > 100 µM | IGROV-1 > 100 µM | K562 > 100 µM | KM12 > 100 µM | LOX IMVI > 100 µM | M14 > 100 µM | MCF7 > 100 µM | MDA-N > 100 µM | MOLT-4 > 100 µM | Malme-3M > 100 µM | NCI-H226 > 100 µM | NCI-H460 > 100 µM | NCI-H522 > 100 µM | NCI/ADR-RES > 100 µM | OVCAR-3 > 100 µM | OVCAR-4 > 100 µM | OVCAR-5 > 100 µM | OVCAR-8 > 100 µM | PC-3 > 100 µM | RPMI-8226 > 100 µM | SF-268 > 100 µM | SF-295 > 100 µM | SK-MEL-28 > 100 µM | SK-MEL-2 > 100 µM | SK-MEL-5 > 100 µM | SK-OV-3 > 100 µM | SN12C > 100 µM | SNB-19 > 100 µM | SNB-75 > 100 µM | SW-620 > 100 µM | T47D > 100 µM | TK-10 > 100 µM | UACC-257 > 100 µM | UACC-62 > 100 µM | UO-31 > 100 µM
> 100 µM: HCT-15

COC(=O)C(C)(C)OCc1ccc(C2NC(=O)N(c3cccc(Cl)c3)C(=O)N2c2cccc(Cl)c2)cc1 (stereo not given)
19.6 µM: HCT-15
inactive: 786-0 40.9 µM | A549 35.2 µM | ACHN 47.9 µM | BT-549 51.1 µM | CAKI-1 35.2 µM | CCRF-CEM 10.6 µM | COLO 205 28.6 µM | DU-145 59.7 µM | EKVX 10.5 µM | HCC 2998 40.6 µM | HCT-116 36.6 µM | HOP-62 99.8 µM | HOP-92 15.1 µM | HT-29 26.1 µM | Hs-578T 3.96 µM | IGROV-1 22 µM | K562 7.45 µM | KM12 23.7 µM | M14 65.3 µM | MCF7 35.7 µM | MDA-MB-231 55 µM | MDA-MB-435 46 µM | MDA-N 55.8 µM | MOLT-4 8.07 µM | NCI-H23 1.26 µM | NCI-H460 29.4 µM | NCI-H522 10.6 µM | NCI/ADR-RES 17.1 µM | OVCAR-3 56.2 µM | OVCAR-4 57.5 µM | OVCAR-5 > 100 µM | OVCAR-8 32.6 µM | PC-3 20.2 µM | RPMI-8226 9.16 µM | RXF 393 26.4 µM | SF-268 26.1 µM | SF-295 31 µM | SF-539 50.1 µM | SK-MEL-28 > 100 µM | SK-MEL-2 52.8 µM | SK-MEL-5 10.7 µM | SK-OV-3 54.3 µM | SN12C 29.2 µM | SNB-19 > 100 µM | SW-620 75.5 µM | U-251 58.5 µM | UACC-257 31.8 µM | UACC-62 36.6 µM | UO-31 25.3 µM
active: SNB-75 0.34 µM | SR 0.52 µM
